# Assay results taken from patent US20260138958A1, “SUBSTITUTED N-PHENYLURACILS AND SALTS THEREOF, AND USE THEREOF AS HERBICIDAL ACTIVE SUBSTANCES” (Bayer Aktiengesellschaft, priority 2022, published 2026).
# Columns and labels:
# Format in all cases: in vivo
# [1] = test system: harmful plants; test: Post-emergence herbicidal action, summary statements over several weeds; conditions: 20 g or less per hectare, ALOMY, ECHCG, AVEFA, VERPE
# Experimental: (§1) Seeds of monocotyledonous and dicotyledonous weeds and crop plants were placed in sandy loam in plastic or wood-fibre pots, covered with soil and cultivated in a greenhouse under controlled growth conditions. 2 to 3 weeks after sowing, the test plants were treated at the one-leaf stage. The compounds of the invention, formulated in the form of wettable powders (WP) or as emulsion concentrates (EC), were then sprayed onto the green parts of the plants as aqueous suspension or emulsion with addition of 0.5% additive at a water application rate of 600 l/ha (converted). After the test plants had been kept in the greenhouse under optimum growth conditions for about 3 weeks, the activity of the preparations was rated visually in comparison to untreated controls. For example, 100% activity=the plants have died, 0% activity=like control plants.
# [2] = test system: Echinochloa crus-galli (ECHCG); test: Post-emergence herbicidal action, greenhouse pot test; conditions: for pest or weed control at 20 g/ha: Echinochloa crus-galli, 504 h, read-out: Post-emergence effect at 20 g/ha against ECHCG in %
# Method in brief: (§2)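 Weeds grown in sandy loam in the greenhouse and sprayed post-emergence at the one-leaf stage, 2–3 weeks after sowing. Compound applied as WP or EC in water with 0.5% additive at 600 l/ha. Damage rated visually about 3 weeks later against untreated controls (0% = like control, 100% = dead).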
# [3] = test system: Veronica persica (VERPE); test: as above; conditions: for pest or weed control at 5 g/ha / pest or weed control at 20 g/ha: Veronica persica, 504 h; for pest or weed control at 5 g/ha: read-out: Post-emergence effect at 5 g/ha against VERPE in %; for pest or weed control at 20 g/ha: read-out: Post-emergence effect at 20 g/ha against VERPE in %
# Method in brief: as §2
# [4] = test system: Pharbitis purpurea (PHBPU); test: as above; conditions: for pest or weed control at 5 g/ha / pest or weed control at 20 g/ha: Ipomoea purpurea, 504 h; for pest or weed control at 5 g/ha: read-out: Post-emergence effect at 5 g/ha against PHBPU in %; for pest or weed control at 20 g/ha: read-out: Post-emergence effect at 20 g/ha against PHBPU in %
# Method in brief: as §2
# [5] = test system: Digitaria sanguinalis (DIGSA); test: as above
# Method in brief: as §2
# [6] = test system: Abutilon theophrasti (ABUTH); test: as above; conditions: for pest or weed control at 5 g/ha / pest or weed control at 20 g/ha: Abutilon theophrasti, 504 h; for pest or weed control at 5 g/ha: read-out: Post-emergence effect at 5 g/ha against ABUTH in %; for pest or weed control at 20 g/ha: read-out: Post-emergence effect at 20 g/ha against ABUTH in %
# Method in brief: as §2
# [7] = test system: Viola tricolor (VIOTR); test: as above; conditions: for pest or weed control at 20 g/ha: Viola tricolor, 504 h, read-out: Post-emergence effect at 20 g/ha against VIOTR in %
# Method in brief: as §2
# [8] = test system: Alopecurus myosuroides (ALOMY); test: as above; conditions: for pest or weed control at 20 g/ha: Alopecurus myosuroides, 504 h, read-out: Post-emergence effect at 20 g/ha against ALOMY in %
# Method in brief: as §2
# [9] = test system: Bassia scoparia (KCHSC); test: as above
# Method in brief: as §2
# [10] = test system: Setaria viridis (SETVI); test: as above; conditions: for pest or weed control at 5 g/ha / pest or weed control at 20 g/ha: Setaria viridis, 504 h; for pest or weed control at 5 g/ha: read-out: Post-emergence effect at 5 g/ha against SETVI in %; for pest or weed control at 20 g/ha: read-out: Post-emergence effect at 20 g/ha against SETVI in %
# Method in brief: as §2
# [11] = test system: Tripleurospermum inodorum (MATIN); test: as above; conditions: Tripleurospermum inodorum, 504 h, 20 g/ha, read-out: Post-emergence effect at 20 g/ha against MATIN in %
# Method in brief: as §2
# [12] = test system: Polygonum convolvulus (POLCO); test: as above; conditions: Fallopia convolvulus, 504 h; for pest or weed control at 5 g/ha: read-out: Post-emergence effect at 5 g/ha against POLCO in %; for pest or weed control at 20 g/ha: read-out: Post-emergence effect at 20 g/ha against POLCO in %
# Method in brief: as §2
# [13] = test system: Amaranthus retroflexus (AMARE); test: as above; conditions: Amaranthus retroflexus, 504 h; for pest or weed control at 1.25 g/ha: read-out: Post-emergence effect at 1.25 g/ha against AMARE in %; for pest or weed control at 5 g/ha: read-out: Post-emergence effect at 5 g/ha against AMARE in %; for pest or weed control at 20 g/ha: read-out: Post-emergence effect at 20 g/ha against AMARE in %
# Method in brief: as §2
# [14] = test system: crop plants; test: Post-emergence crop plant compatibility, summary statements over several crops; conditions: 5 g or less per hectare, ORYSA, ZEAMX, TRZAS
# Experimental: as §1
# The observed effects on selected crop plants are reported here in comparison to the untreated controls (values in %).
# [15] = test system: Zea mays (ZEAMX); test: Post-emergence crop plant compatibility, greenhouse pot test; conditions: Zea mays, in vivo
# Method in brief: (§3)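 Visual % damage scores were taken roughly 3 weeks after treatment, relative to untreated plants, where 100% means plants died and 0% means no difference. Plants received aqueous sprays (WP or EC, 0.5% additive, 600 l/ha) on green parts at the one-leaf stage, 2–3 weeks after sowing.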
# [16] = test system: Triticum aestivum (TRZAS); test: as above; conditions: Triticum aestivum, in vivo
# Method in brief: as §3
# [17] = test system: Glycine max (GLXMA); test: as above; conditions: Glycine max, in vivo
# Method in brief: as §3
# [18] = test system: Oryza sativa (ORYSA); test: as above; conditions: Oryza sativa, in vivo
# Method in brief: as §3
Structure (SMILES),pest or weed control at 20 g/ha [2] [%],pest or weed control at 5 g/ha [3] [%],pest or weed control at 20 g/ha [3] [%],pest or weed control at 5 g/ha [4] [%],pest or weed control at 20 g/ha [4] [%],pest or weed control at 5 g/ha [6] [%],pest or weed control at 20 g/ha [6] [%],pest or weed control at 20 g/ha [7] [%],pest or weed control at 20 g/ha [8] [%],pest or weed control at 5 g/ha [10] [%],pest or weed control at 20 g/ha [10] [%],pest or weed control at 20 g/ha [11] [%],pest or weed control at 5 g/ha [12] [%],pest or weed control at 20 g/ha [12] [%],pest or weed control at 1.25 g/ha [13] [%],pest or weed control at 5 g/ha [13] [%],pest or weed control at 20 g/ha [13] [%],Post-emergence effect at 1.25 g/ha against ZEAMX in % [15] [%],Post-emergence effect at 1.25 g/ha against TRZAS in % [16] [%],Post-emergence effect at 20 g/ha against TRZAS in % [16] [%],also measured
Cn1c(C(F)(F)F)cc(=O)n(-c2cc(Oc3ccccc3OCC(=O)OCC3CCCCCC3)c(Cl)cc2F)c1=O [I.7-16],100,100,100,100,100,100,100,100,100,100,100,90,100,100,100,100,100,20,10,20,"herbicidal efficacy by comparison with a-27, a-29 or a generically encompassed structure (WO2002/098227) [1]: distinctly improved herbicidal efficacy; Post-emergence effect at 1.25 g/ha against ECHCG in % ([2]; 1.25 g/ha): 100%; Post-emergence effect at 5 g/ha against ECHCG in % ([2]; 5 g/ha): 100%; ECHCG (efficacy in %) ([2]; Table B5 comparison, application rate 1.25 g/ha): 100%; Post-emergence effect at 1.25 g/ha against VERPE in % ([3]; 1.25 g/ha): 80%; Post-emergence effect at 1.25 g/ha against PHBPU in % ([4]; 1.25 g/ha): 80%; Post-emergence effect at 1.25 g/ha against DIGSA in % ([5]; 1.25 g/ha): 90%; Post-emergence effect at 5 g/ha against DIGSA in % ([5]; 5 g/ha): 100%; Post-emergence effect at 20 g/ha against DIGSA in % ([5]; 20 g/ha): 100%; Post-emergence effect at 1.25 g/ha against ABUTH in % ([6]; 1.25 g/ha): 80%; Post-emergence effect at 1.25 g/ha against VIOTR in % ([7]; 1.25 g/ha): 100%; Post-emergence effect at 5 g/ha against VIOTR in % ([7]; 5 g/ha): 100%; Post-emergence effect at 5 g/ha against ALOMY in % ([8]; 5 g/ha): 90%; Post-emergence effect at 1.25 g/ha against KCHSC in % ([9]; 1.25 g/ha): 100%; Post-emergence effect at 5 g/ha against KCHSC in % ([9]; 5 g/ha): 100%; Post-emergence effect at 20 g/ha against KCHSC in % ([9]; 20 g/ha): 100%; Post-emergence effect at 1.25 g/ha against SETVI in % ([10]; 1.25 g/ha): 100%; compatibility with crop plants by comparison with a-27, a-29 or a generically encompassed structure (WO2002/098227) [14]: distinctly improved compatibility"
"Cn1c(C(F)(F)F)cc(=O)n(-c2cc(Oc3ccccc3OCC(=O)OCC3CC3)c(Br)cc2F)c1=O [I.8-1, Cyclopropylmethyl (2-{2-bromo-4-fluoro-5-[3-methyl-2,6-dioxo-4-(trifluoromethyl)-3,6-dihydropyrimidin-1(2H)-yl]phenoxy}phenoxy)acetate]",100,100,100,80,100,100,100,100,100,100,100,100,100,100,100,100,100,0,0,0,Post-emergence effect at 1.25 g/ha against GLXMA in % [17]: 0%; Post-emergence effect at 1.25 g/ha against ORYSA in % [18]: 0%; Post-emergence effect at 5 g/ha against ORYSA in % [18]: 0%; Post-emergence effect at 20 g/ha against ORYSA in % [18]: 20%
